Laboratory results: US12521358B2, “Method for selecting cancer patients for whom combination therapy with retinoid and cancer therapeutic agent is effective, and combination medicament with retinoid and cancer therapeutic agent” (RaQualia Pharma Inc., priority 2020, dated 2026)

Columns and labels:
[1] = system: primary human pancreatic stellate cells; assay: Meflin gene (ISLR) expression by qPCR after retinoid treatment (Example 4); assay type: cell-based; details: relative expression level, control (DMSO-treated cells) = 1, retinoid 1 μM, 48 hours
Procedure: (§1) The primary human pancreatic stellate cells used are those provided by Dr. Masamune, Tohoku University. The primary mouse mesenchymal stem cells used are those purchased from Cyagen Co., Ltd. Both pancreatic stellate cells and mesenchymal stem cells are considered to be the origin of CAF. As the retinoid, the retinoid contained in SCREEN-WELL Nuclear Receptor ligand library (ENZO) is used. DMEM+10% FBS is used as a culture medium. The cells are seeded in a collagen-coated dish and cultured until they are 100% confluent, and various retinoids are added to a concentration of 1 μM. After 48 hours, cells are harvested, RNA is extracted using RNeasyPLUS KIT (QIAGEN), and cDNA is synthesized using ReverseTra Ace qPCR RT Master Mix (TOYOBO). The expression level of the meflin gene (ISLR and Islr) is measured by qPCR using the Gene expression assay (Thermo Fisher scientific).

[2] = system: primary mouse mesenchymal stem cells; assay: Meflin gene (Islr) expression by qPCR after retinoid treatment (Example 4); assay type: cell-based; details: relative expression level, control (DMSO-treated cells) = 1, retinoid 1 μM, 48 hours
Procedure: as §1

[3] = system: mouse pancreatic cancer cells mT5; assay: AM80 alone in mice subcutaneously transplanted with mT5 (Example 6); assay type: in vivo
Excerpt: Pancreatic cancer cell mT5, which was distributed by Dr. David Tuveson, Cold Spring Harbor Laboratory, is used. mT5 is a pancreatic cancer cell established from a pancreatic tumor developed in KPC mice, which is a pancreatic cancer spontaneous onset model (Organoid models of human and mouse ductal pancreatic cancer. Cell. 2015 Jan. 15; 160 (1-2)): 324-38. Doi: 10.1016/j. cell. 2014.12.021. Epub 2014 Dec. 31.).
C57BL/6J female mice are subcutaneously transplanted with mouse pancreatic cancer cells mT5 (1.0×10^6 cells). Eight days later (Day 8), AM80 is orally administered for 15 days to mice in which tumor formation was confirmed. Depending on the dose of AM80 (0.1 mg/kg/day, 0.5 mg/kg/day, 1 mg/kg/day and 3 mg/kg/day), a total of 5 groups, namely, four AM80 administration groups and a control group (DMSO administration) are set up (n=5 in each group). Body weight and tumor volume are measured before the start of the AM80 administration (Day 8), Day 11, Day 15, Day 18 and Day 22. On Day 22, mice are euthanized, tumors are removed to prepare tissue specimens, the in situ hybridization (ISH) is performed to detect the expression of the meflin gene (Islr) and the actin gene (Acta2), and then the number of positive signals is counted for each. Furthermore, a tissue specimen of the tumor is prepared, immunostaining is performed with an anti-CD31 antibody to stain CD31, which is a marker for vascular endothelial cells, and the vascular lumen area is measured.

[4] = system: primary mouse mesenchymal stem cells; assay: Islr, Acta2, Col1a1 and Col3a1 expression by qPCR after retinoid treatment (Example 5); assay type: cell-based; details: vs control (DMSO), 48 hours after addition; for expression level of meflin gene (Islr): FIG. 27(A); for expression level of actin gene (Acta2): FIG. 27(B); for expression level of type I collagen gene (Col1a1): FIG. 27(C); for expression level of type III collagen gene (Col3a1): FIG. 27(D)
Procedure: as §1
The same method is performed as in the experiment using the primary mouse mesenchymal stem cells in Example 4. ATRA, AM80 and AM580 are used as retinoids. The expression levels of the meflin gene (Islr), actin gene (Acta2), type I collagen gene (Col1a1) and type III collagen gene (Col3a1) are measured by qPCR.

[5] = system: mouse pancreatic cancer cells mT5; assay: Collagen arrangement in tumor stroma by second harmonic microscope (Example 16); assay type: in vivo; details: tamibarotene 3.0 mg/kg oral once a day for 7 days from Day 8; vs control (DMSO); Day 15
Procedure: C57BL/6J female mice are subcutaneously transplanted with mouse pancreatic cancer cells mT5 (1.0×10^6 cells). Eight days later (Day 8), the mice are divided into two groups, a control group and a tamibarotene administration group (AM80 group) to ensure equal tumor volume (n=5 in each group). In the AM80 group, tamibarotene (3.0 mg/kg) is orally administered once a day for 7 days from Day 8. In the control group, DMSO is orally administered instead of tamibarotene. On Day 15, mice are euthanized, and tumors are removed to prepare tissue specimens. Eight to sixteen images are randomly selected from the tumor tissue specimen, the collagen arrangement is measured with a second harmonic microscope, and the curvature (linearity) is analyzed.

[6] = system: mouse pancreatic cancer cells mT5; assay: Tamibarotene and gemcitabine in mice transplanted with mT5 (Example 7); assay type: in vivo; details: tamibarotene 3.0 mg/kg oral once a day for 17 days from Day 8; gemcitabine 50 mg/kg i.p. Day 15, 18, 21; to Day 24
Procedure: C57BL/6J female mice are subcutaneously transplanted with mouse pancreatic cancer cells mT5 (1.0×10^6 cells). […] In the Gem+AM80 group, tamibarotene (3.0 mg/kg) is orally administered once a day for 17 days from Day 8. In addition, in the Gem group and the Gem+AM80 group, gemcitabine (50 mg/kg) is intraperitoneally administered once each on Day 15, Day 18 and Day 21. In the control group, DMSO is orally administered instead of tamibarotene, and saline is intraperitoneally administered instead of gemcitabine. Tumor volume is measured before start of the AM80 administration (Day 8), Day 12, Day 15, Day 18, Day 21 and Day 24.

[7] = AM80 3 mg/kg/day vs control group, tumor removed Day 22

CC1=C(/C=C/C(C)=C/C=C/C(C)=C/C(=O)O)C(C)(C)CCC1O (stereo not shown) [4-Hydroxyretinoic acid, 4-hydroxyretinoic acid]
ISLR expression level (mean value) [1]: 3.264
ISLR expression level (mean value) [2]: 1.912

CC1=C(/C=C/C(C)=C\C=C\C(C)=C\C(=O)O)C(C)(C)CCC1 [9-cis Retinoic acid, 9-cis-retinoic acid]
ISLR expression level (mean value) [1]: 4.894

CC1=C(/C=C/C(C)=C/C=C/C(C)=C\C(=O)O)C(C)(C)CCC1 [13-cis Retinoic, 13-cis-retinoic acid]
ISLR expression level (mean value) [1]: 7.252

CC1(C)CCC(C)(C)c2cc(NC(=O)c3ccc(C(=O)O)cc3)ccc21 [AM80, tamibarotene]
number of dots of the Acta2 positive signal per high-magnification field (ISH) [3, 7]: significantly lower
number of dots of the Islr positive signal per high-magnification field (ISH) [3, 7]: significantly higher
vascular lumen area (anti-CD31 immunostaining) [3, 7]: significantly higher
tumor volume ([3]; AM80 0.1, 0.5, 1 and 3 mg/kg/day oral for 15 days from Day 8, vs control (DMSO), Day 8-22): does not suppress the growth
body weight ([3]; AM80 0.1-3 mg/kg/day oral for 15 days): does not affect the body weight
expression level of meflin gene (Islr) [4]: high
expression level of actin gene (Acta2) [4]: low
expression level of type I collagen gene (Col1a1) [4]: low
expression level of type III collagen gene (Col3a1) [4]: low
curvature (linearity) of collagen [5]: reducing the linearity of collagen

CC1(C)CCC(C)(C)c2cc(C(=O)Nc3ccc(C(=O)O)cc3)ccc21 [AM580]
ISLR expression level (mean value) [1]: 3625.326
ISLR expression level (mean value) [2]: 5.295
expression level of meflin gene (Islr) [4]: high
expression level of actin gene (Acta2) [4]: low
expression level of type I collagen gene (Col1a1) [4]: low
expression level of type III collagen gene (Col3a1) [4]: low

CC1=C(/C=C/C(C)=C/C=C/C(C)=C/C(=O)O)C(C)(C)CCC1 [ATRA, all-trans retinoic acid]
ISLR expression level (mean value) [1]: 217.5011
ISLR expression level (mean value) [2]: 1.693
expression level of meflin gene (Islr) [4]: high
expression level of actin gene (Acta2) [4]: low
expression level of type I collagen gene (Col1a1) [4]: low
expression level of type III collagen gene (Col3a1) [4]: low

COc1cc(C)c(/C=C/C(C)=C/C=C/C(C)=C/C(=O)O)c(C)c1C [Acitretin]
ISLR expression level (mean value) [1]: 47.59
ISLR expression level (mean value) [2]: 7.659

COc1ccc(-c2ccc3cc(C(=O)O)ccc3c2)cc1C12CC3CC(CC(C3)C1)C2 [Adapalene, adapalene]
ISLR expression level (mean value) [2]: 5.428

CC(C)(c1ccc(OCC2CO2)cc1)c1ccc(OCC2CO2)cc1 (stereo not shown) [BADGE, bisphenol A diglycidyl ether]
ISLR expression level (mean value) [1]: 5089.576

Nc1ccn([C@@H]2O[C@H](CO)[C@@H](O)C2(F)F)c(=O)n1 [Gem, gemcitabine]
tumor growth (tumor volume) [6]: more significantly suppresses the tumor growth than the control group

CC(=O)OC/C=C(C)/C=C/C=C(C)/C=C/C1=C(C)CCCC1(C)C [Retinyl acetate, retinyl acetate]
ISLR expression level (mean value) [1]: 3.29

C/C(=C\c1ccc(C(=O)O)cc1)c1ccc2c(c1)C(C)(C)CCC2(C)C [TTNPB]
ISLR expression level (mean value) [1]: 15.94
ISLR expression level (mean value) [2]: 5.183
